# In patent publication US20250017888A1, “COMPOUNDS FOR TREATING DISEASES ASSOCIATED WITH HYALURONAN OVERPRODUCTION” (THE ROYAL VETERINARY COLLEGE, priority 2021, published 2025):
# pIC50: −log10 of the molar value. Like-named read-outs stand apart in the source and are kept apart here.
# Columns and labels:
# Format in all cases: cell-based
# [1] = tested on: chondrosarcoma cells (SW1353); assay: Alamar blue staining of chondrosarcoma; conditions: Homo sapiens
# Method: (§1) The hyaluronan synthase activity (Prehm, P. and Schumacher, U., Biochem. Pharmacol. 2004, 68, 1401-1410), the cytotoxicity of the drugs (O'Brien, J. et al., Eur. J. Biochem. 2000, 267, 5421-5426), proteoglycan synthesis rate, hyaluronan (Prehm, P. J. Rheumatol., 2005, 32, 690-696) and proteoglycan (Bjornsson, S. Anal. Biochem. 1993, 210, 282-291) were determined as described. The effect of the prenylflavonoids on the MRP5 export rate was measured with fluorescein diacetate as described (Schulz, T., Schumacher, U., and Prehm, P., J Biol. Chem., 2007, 282, 20999-21004). The determination of the IC50 values on the phosphodiesterase 5 was performed according to the instructions of BPS Bioscience. The culture of bovine chondrocytes in alginate beads and of explants of bovine cartilage was described previously (Deiters, B. and Prehm, P. Arthritis Res. Ther., 2008, 10, R8; Prehm, P. J. Rheumatol. 2005, 32, 690-696). Osteoarthritic reactions were induced in chondrocytes growing in alginate beads by incubation with medium containing 10 ng/ml of II-17 for 6 days, and in cartilage explants with 10 ng/ml of II-17 and 5 ng/ml of II-1α. The supernatants were withdrawn and stored at −20° C. for later analysis. The explants were weighed and extracted with 1 ml of 4 M guanidinium-HCl for 72 hours at 4° C. The proteoglycan concentrations were determined in the extracts.
# Chondrosarcoma cells (SW1353 from the American Type Culture Collection) were grown in Dulbecco's medium supplemented with streptomycin/penicillin (100 units of each/ml), 10% foetal calf serum or in serum free Quantum medium supplemented with streptomycin/penicillin (100 units of each/ml), kanamycin (100 units/ml).
# [2] = tested on: fibroblasts; assay: Alamar blue staining of fibroblasts; conditions: Fibroblast
# Method: as §1
# [3] = tested on: hyaluronan export from chondrosarcoma cells; assay: Inhibition of hyaluronan export / production in chondrosarcoma cells; conditions: for inhibition of hyaluronan export: culture supernatant after 2 days, comparison with parent compound, particularly below 3 μM
# Method: as §1
# Chondrosarcoma cells were plated on a 96 well microtiter plate and in the presence of increasing flavonoid concentrations. After 2 days the concentration of hyaluronan was determined in the culture supernatant.
# [4] = tested on: chondrosarcoma cells; assay: Inhibition of chondrosarcoma cell growth (Coulter counter); conditions: cell numbers after 2 days
# Method: Chondrosarcoma cells were plated on a 24 well microtiter plate and in the presence of increasing flavonoid concentrations. After 2 days the cells were trypsinized and the cell numbers were determined in a Coulter counter.
# [5] = tested on: bovine cartilage explants; assay: Proteoglycan loss from interleukin activated bovine cartilage explants; conditions: interleukin stimulated, 5 days
# Method: Cartilage explants were weighed (average wet weight: 20 mg) incubated in the absence and presence of IL-1 (2 ng/ml) and the inhibitors at various concentrations for 5 days. The tissues were extracted with 1.5 ml of a solution of 4 M guanidinium hydrochloride, 0.1 M ε-aminohexanoid acid, 5 mM benzamidine, 10 mM N-ethylmaleinimide, 0.5 mM phenylmethylsulfonyl fluoride for 3 days at 4° C. The solution was centrifuged for 5 min at 10.000 g and the proteoglycans were determined in the supernatant by the alcian blue method as described (Bjornsson, S., Anal. Biochem., 1993, 210, 282-291).
# Bovine cartilage explants were incubated in the absence and presence of interleukin for stimulation of osteoarthritic reactions and the indicated concentrations of the xanthohumol-betaine (FIG. 6A), xanthohumol-prothiazole (FIG. 6B), quercetin-prothiazole (FIG. 6C), quercetin (FIG. 6D) and xanthohumol (FIG. 6E) for 5 days. The cartilage explants were weighed and the proteoglycan concentrations were determined in the cartilage explants (solid bars) and culture supernatants (open bars).
# [6] = tested on: chondrosarcoma cells; assay: Uptake of flavonoids into chondrosarcoma cells by intracellular fluorescence
# Method: Confluent monolayers of chondrosarcoma cells on 96 well microtiter plates were incubated with 100 μM solutions of flavonoids in serum-free Quantum medium. Changes in fluorescence were monitored from the bottom of the wells at excitation and emission wavelengths of 340 nm and 450 nm for xanthohumol and at 440 nm and 530 nm for quercetin, respectively.
# Flavonoids are weakly fluorescent in aqueous buffer, but greatly enhance the fluorescence in the presence of proteins (Sengupta, B. and Sengupta, P. K., Biochem. Biophys. Res. Commun., 2002, 299, 400-403). This property was used to follow the uptake of quercetin and xanthohumol into chondrosarcoma cells.
# [7] = Alamar blue toxicity assay (FIG. 1); conditions: below concentrations of 100 μM
# Method: as §1
# The toxicity was determined by the Alamar blue assay.
"uptake into chondrosarcoma cells (intracellular fluorescence) ([6]; concentration dependence, FIG. 2A)",SMILES,pIC50 [1],pIC50 [2],pIC50 [3],inhibition of hyaluronan export [3],inhibition of chondrosarcoma cell growth [4],inhibition of proteoglycan loss (protective effect) [5],uptake into chondrosarcoma cells (intracellular fluorescence) [6],toxicity in Alamar blue assay [7]
–,"COc1cc(O)c(CC=C(C)C)c(O)c1C(=O)/C=C/c1ccc(OC(=O)CN(C=O)/C=C\SC(C)=O)cc1 [Xanthohumol-prothiazole, 4-((E)-3-(2,4-dihydroxy-6-methoxy-3-(3-methylbut-2-en-1-yl)phenyl)-3-oxoprop-1-en-1-yl)phenyl 2-(N-((Z)-2-(acetylthio)vinyl)formamido)acetate]",4.16,4.13,4.70,more effective than their parent compound,more effective at submicromolar concentrations,similarly effective,taken up in a concentration dependent manner,not toxic
did not accumulate inside the cells,"O=c1c(O)c(-c2ccc(O)c(O)c2)oc2cc(O)cc(O)c12 [Quercetin, reference compound]",4.15,–,4.80,–,–,–,–,not toxic
–,"CC(=O)S/C=C\N(C=O)CC(=O)Oc1ccc(-c2oc3cc(O)cc(O)c3c(=O)c2O)cc1O [Quercetin-prothiazole, (Z)-2-hydroxy-4-(3,5,7-trihydroxy-4-oxo-4H-chromen-2-yl)phenyl 2-(N-(2-(acetylthio)vinyl)formamido)acetate]",4.21,4.18,5.10,more effective than their parent compound,more effective at submicromolar concentrations,similarly effective,taken up in a concentration dependent manner,not toxic
